According to patent US10322143B2, “Inhibitors of ADAMTS4 or ADAMTS5 for use in preventing or treating cardiac remodeling and chronic heart failure” (Universitetet i Oslo, priority 2013, dated 2019):

Experiments:
TIMP-3 mRNA = TIMP-3 mRNA level (qRT-PCR) in MI rats; format: in vivo, rat; conditions: PPS-treatment
Description: (§1) At day 0 to 3 (median 2) after surgery, infarct size was quantified by echocardiography using the Vevo2100 system (Visualsonics Inc, Canada) and magnetic resonance imaging (MRi) using a 9.4 T/210 mm/ASR horizontal bore magnet (Agilent Technologies, Inc., USA). Initially, echocardiography was performed to select moderate to large infarcts ranging approximately 40 to 50%. Thereafter, infarct sizes were exactly measured by late-enhancement gadolinium MRi analyses (Bohl S., et al. American Journal of Physiology, 2009; 296 (4): H1200-H1208) and stratified into small infarcts (stratum 1: <43%, stratum 2: 43-48%), and large infarcts (stratum 3: 48-53%, stratum 4: >53%). The rats in each MI stratum and sham group were randomized to receive intervention or control treatment. The intervention group was treated with 6 mg/kg of sodium PPS (Interfarm AS, Norway), while the control group received vehicle (0.9% NaCl), both injected subcutaneously every third day starting from post-operative day 8-10.
(§2) The mRNA levels of the ADAMTS versicanases ADAMTS1, -4, -5, -8, and -20 (Shiomi T, et al. Pathology International 2010; 60(7):477-96), versican, aggrecan, syndecan-4, tissue inhibitor metalloprotease (TIMP)-3, and membrane-type (MT)4-MMP, were quantified in rat left ventricle by qRT-PCR, as previously described in Example 1.

ADAMTS5 = ADAMTS5 (Homo sapiens (Human), UniProt Q9UNA0); conditions: previous studies; cited from earlier work
Sequence of ADAMTS5 (Q9UNA0 262-930, species assumed): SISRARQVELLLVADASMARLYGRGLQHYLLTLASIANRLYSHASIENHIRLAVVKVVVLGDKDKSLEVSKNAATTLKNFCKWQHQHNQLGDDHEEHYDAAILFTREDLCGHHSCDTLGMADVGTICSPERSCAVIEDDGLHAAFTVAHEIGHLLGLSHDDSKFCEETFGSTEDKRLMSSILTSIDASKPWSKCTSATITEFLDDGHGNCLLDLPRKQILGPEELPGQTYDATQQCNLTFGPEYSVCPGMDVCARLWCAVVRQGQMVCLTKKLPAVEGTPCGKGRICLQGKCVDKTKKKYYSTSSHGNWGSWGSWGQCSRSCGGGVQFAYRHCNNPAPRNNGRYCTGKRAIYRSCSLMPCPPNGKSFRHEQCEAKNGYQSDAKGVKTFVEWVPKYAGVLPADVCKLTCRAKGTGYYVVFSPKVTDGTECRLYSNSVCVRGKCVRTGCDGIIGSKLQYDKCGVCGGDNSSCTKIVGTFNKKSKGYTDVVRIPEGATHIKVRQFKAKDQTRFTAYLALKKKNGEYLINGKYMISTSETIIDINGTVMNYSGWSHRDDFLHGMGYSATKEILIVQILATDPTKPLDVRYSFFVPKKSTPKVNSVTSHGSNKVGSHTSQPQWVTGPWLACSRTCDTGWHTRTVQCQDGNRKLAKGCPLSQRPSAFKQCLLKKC

[1] = system: acute ischemia/reperfusion model; conditions: administered during reperfusion; cited from earlier work
MT4-MMP mRNA = MT4-MMP mRNA level (qRT-PCR) in MI rats; format: in vivo, rat; conditions: PPS-treatment
Description: as §1, §2

[2] = system: ADAMTS1, -5, -8, versican, aggrecan, HAS-1, HAS-2, TIMP-3 and MT4-MMP mRNA; assay: Myocardial mRNA expression of other ADAMTS, proteoglycans and modulators (qRT-PCR) in aortic banding rats; format: in vivo, rat; conditions: AB-rats, PPS-treatment vs vehicle
Description: Three days after AB, rats were stratified by the gradient over the stenosis to ensure similar degree of cardiac stress. Two and two stratified rats were randomized to either 6 mg/kg of the sulfated polysaccharide sodium pentosan polysulfate (PPS) (Interfarm AS, Norway) or vehicle (0.9% NaCl) injected subcutaneously every third day. […] Six weeks after AB or sham operation, the rats were examined by echocardiography and postmortem analysis, performed by experienced investigators (IS, JMA) blinded to treatment group.
In addition, mRNA levels of proteins known to modulate ADAMTS activity or versican function were measured; tissue inhibitor of metalloprotease (TIMP)-3, hyaluronic acid (HA) synthase 1 and 2, and membrane-type (MT)4-MMP, while mRNA levels of ADAMTS1, -4, and versican were quantified in NFB and NCM.
Total RNA was isolated from the left ventricle in AB rats, neonatal rat cardiomyocytes and fibroblasts (RNeasy mini kit, Qiagen, Valencia, Calif.). […] The results were detected on an ABI PRISM 7900 Sequence Detection System (Applied Biosystems, CA).

versican = assay: Versican DPEEAE fragments (immunoblotting) in MI rats; format: in vivo, rat; conditions: PPS-treatment
Description: as §1
(§3) Fractional protein lysates from myocardium of rats having undergone MI treated with PPS or vehicle were extracted as previously described in Example 1 and Didangelos et al. (Journal of Biological Chemistry 2012 Jun. 1; 287(23):19341-5). Protein concentrations were measured by western blotting as previously described in Example 1. […]

ADAMTS4 = ADAMTS4 (Rattus norvegicus (Rat), UniProt Q9ESP7); assay: Active ADAMTS4 protein level (immunoblotting) in MI rats; format: in vivo; conditions: PPS-treatment
Description: as §1, §3

## pentosan polysulfate [PPS]
TIMP-3 mRNA
  TIMP-3 level: did not change
ADAMTS5
  aggrecanase activity of ADAMTS5: inhibits
[1]
  infarction size: reduce infarction size
MT4-MMP mRNA
  mRNA levels of MT4-MMP: decreased
[2]
  mRNA levels of ADAMTS1, -5, -8, versican, aggrecan, HAS-1, HAS-2, TIMP-3 and MT4-MMP: not affected
versican
  versican DPEEAE fragments: decreased
ADAMTS4
  active ADAMTS4 protein levels: decreased
